Source: patent US8536221B2, “Amide derivatives as positive allosteric modulators and methods of use thereof” (AbbVie Inc., priority 2008, dated 2013)

Columns and labels:
[1] = test system: formalin-induced nociceptive behavior in mice; test: Formalin-induced persistent nociceptive behavior assay; type: in vivo; settings: 20-45 minutes post formalin injection, 10 mg/kg subcutaneously 10 minutes prior to formalin, versus vehicle
Description: FIG. 3 is a graphical representation of nocifensive response (licking duration) following treatment with vehicle or a PAM (Example 6) followed by exposure to formalin in mice. […] In Phase II (20-45 minutes post formalin injection) a significant reduction (55%) in licking behavior was observed, indicative of pain relief in this time period.
(iv) Formalin-Induced Persistent Nociceptive Behavior Assay
Nociception was assessed using the formalin test. The mice were placed in open plexiglass observation chambers for 30 minutes to allow them to acclimate to their surroundings; then they were removed for formalin administration. Mice were gently restrained while the dorsum of the hind paw was injected with 20 μL of 2.5% formalin into the plantar surface of the right hind paw with a 30-gauge needle. The animals were returned to the chambers and nociceptive behavior was observed immediately after formalin injection. Mirrors were placed in each chamber to enable unhindered observation. Nociceptive behavior was quantified as the time licking the injected paw for continuous 5 minutes (phase I) and 20-45 minutes (phase II), following formalin injection. Formalin-induced flinching/licking behavior was biphasic. The initial acute phase (phase I, 0-5 minutes) was followed by a relatively short quiescent period, which was then followed by a prolonged tonic response (phase II, 20-45 minutes).

human α7 NNR = biological target: T1, human α7 NNR (Homo sapiens, UniProt P36544); test: Two-electrode voltage-clamp in Xenopus laevis oocytes, potentiation of ACh-evoked α7 currents; type: cell-based; settings: for degree of potentiation: 0.1 mM ACh-evoked α7 currents, normalized to reference PAM at 10 μM taken as 100%, submaximum ACh without PAM as 0%; for EC50: potentiating 0.1 mM ACh-evoked α7 currents in oocytes
T1 construct: expressed in transfected cells; host or cells: Xenopus laevis oocytes injected with cRNA
T1 sequence (P36544 23-502): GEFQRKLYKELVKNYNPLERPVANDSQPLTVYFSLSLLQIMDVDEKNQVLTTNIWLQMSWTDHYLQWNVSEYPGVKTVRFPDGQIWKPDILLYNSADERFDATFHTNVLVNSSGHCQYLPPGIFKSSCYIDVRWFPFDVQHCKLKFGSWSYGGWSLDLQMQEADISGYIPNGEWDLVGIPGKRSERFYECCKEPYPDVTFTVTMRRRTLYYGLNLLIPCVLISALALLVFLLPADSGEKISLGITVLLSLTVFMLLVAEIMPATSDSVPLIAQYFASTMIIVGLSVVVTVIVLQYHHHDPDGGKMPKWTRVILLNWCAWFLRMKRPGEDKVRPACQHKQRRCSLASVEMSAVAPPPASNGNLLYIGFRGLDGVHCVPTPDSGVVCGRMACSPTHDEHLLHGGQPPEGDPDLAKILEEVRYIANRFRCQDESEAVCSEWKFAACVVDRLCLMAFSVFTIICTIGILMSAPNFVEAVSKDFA
Description: FIG. 2 is a concentration response curve obtained in the same manner for a PAM (Example 10). […] Normalized PAM potentiation is plotted on the Y-axis as a function of the concentration of the test modulator (depicted along the X-axis).
(i) Two-Electrode Voltage-Clamp in Xenopus laevis Oocytes
X. laevis oocytes were prepared for electrophysiological experiments as described in the literature (see for example, Briggs. C. A., et al., Neutropharmacology, 1995, 34: 583-590; Briggs, C. A. et al., Neutropharmacology, 1998, 37: 1095-1102). In brief, three to four lobes from ovaries of female adult X. laevis frogs were removed and defolliculated after treatment with collagenase type IA (2 mg/mL; Sigma) prepared in low-Ca^2+ Barth's solution (90 mM NaCl, 1.0 mM KCl, 0.66 mM NaNO3, 2.4 mM NaHCO3, 10 mM H-IEPES, 2.5 mM sodium pyruvate, 0.82 mM MgCl2, and 0.5% (v/v) penicillin-streptomycin solution, pH=7.55, Sigma) for about 1.5 hours to about 2 hours at about 18° C. under constant agitation to obtain isolated oocytes. The oocytes were injected with about 4 ng to about 6 ng of human α7 NNR cRNA, kept at about 18° C. in a humidified incubator in modified Barth's solution (90 mM NaCl, 1.0 mM KCl, 0.66 mM NaNO3, 2.4 mM NaHCO3, 10 mM HEPES, 2.5 mM sodium pyruvate, 0.74 mM CaCl2, 0.82 mM MgCl2, 0.5% (v/v) penicillin-streptomycin solution, pH 7.55) and used about 2 to 7 days after injection. Responses were measured by two-electrode voltage clamp using a parallel oocyte electrophysiology test station (Abbott, Abbott Park, Ill.) (see for example, Trimbull, J. D., Maslana, E. S., McKenna, D. G., Nemcek, T. A., Niforatos, W., Pan, J. Y., Parihar, A. S., Shieh, C. C., Wilkins, J. A., Briggs, C. A., and Bertrand, D. High throughput electrophysiology using a fully automated, multiplexed recording system, Receptors Channels, 2003, 9: 19-28). During recordings, the oocytes were bathed in Ba^2+—OR2 solution (90 mM NaCl, 2.5 mM KCl, 2.5 mM BaCl2, 1.0 mM MgCl2, 5.0 mM HEPES, and 0.0005 mM atropine, pH 7.4) to prevent activation of Ca^2+-dependent currents and held at −60 mV at room temperature (about 20° C.). Test compounds were given for ˜60 seconds before agonist application and subsequently in the presence of 0.1 mM ACh.

α7 NNRs = α7 NNRs (Homo sapiens, UniProt P36544); settings: IMR-32 cells
α7 NNRs, sequence (P36544 23-502): as above
Description: (ii) High-Throughput Calcium Flux Assays Using Cells Expressing Endogenous α7 NNRs
As such, PAMs and nicotinic acetylcholine receptor agonists can be identified by using IMR-32 cells that endogenously express various nicotinic receptors including α7 NNRs. […] Accordingly, allosteric modulator compounds described herein can be identified using a fluorescence-based throughput functional assay using cell lines such as IMR-32 neuroblastoma or primary dissociated neurons. […] Any suitable selective α7 agonist can be used.
IMR-32 neuroblastoma cells (ATCC) were grown to confluency in 162 cm^2 tissue culture flasks in minimum essential media supplemented with 10% FBS and 1 mM sodium pyruvate, 0.1 mM non-essential amino acids and 1% antibiotic-antimycotic. […] Calcium flux was measured using a calcium-3 assay kit (Molecular Devices, Sunnyvale, Calif.) or fluo-4. […] Fluorescence measurements were read simultaneously from all the wells by a Fluorometric Imaging Plate Reader (FLIPR) at an excitation wavelength of 480 nm and an emission wavelength of 520 nm. Baseline fluorescence was measured for the first 10 seconds at which 50 μL of 3× concentrations of modulator/test compounds were added to the cell plate and incubated for three to five minutes. The fluorescence intensity was captured every second for the first 1 minute followed by every 2-5 seconds for an additional two to four minutes. […]

degree of potentiation (human α7 NNR) [%]	EC50 (human α7 NNR) [nM]	SMILES	reduction in licking behavior, Phase II [1] [%]	effect on calcium response elicited by agonist in the presence of allosteric modulator (α7 NNRs)
		O=C(NCc1ccc2[nH]ccc2c1)c1ccc(OCC(F)(F)F)nc1 [Example 6, N-(1H-indol-5-ylmethyl)-6-(2,2,2-trifluoroethoxy)nicotinamide]	55	
91	210	Cn1ccc2cc(CNC(=O)c3ccc(SC(F)(F)F)cc3)ccc21 [Example 10, N-[(1-methyl-1H-indol-5-yl)methyl]-4-[(trifluoromethyl)thio]benzamide]		
99	1100	Cn1ccc2ccc(CNC(=O)c3ccc(SC(F)(F)F)cc3)cc21 [Example 12, N-[(1-methyl-1H-indol-6-yl)methyl]-4-[(trifluoromethyl)thio]benzamide]		
		CCN1C[C@]2(COC(=O)c3ccccc3N3C(=O)C[C@H](C)C3=O)CC[C@H](OC)[C@@]34[C@@H]5C[C@H]6[C@H](OC)[C@@H]5[C@](O)(C[C@@H]6OC)[C@@](O)([C@@H](OC)[C@H]23)[C@@H]14 [methyllycaconitine]		abolished the response
